Laboratory results as given in patent US20250034210A1, “DLL3 TARGETING PEPTIDES AND CONSTRUCTS THEREOF” (MARIANA ONCOLOGY INC., priority 2023, published 2025).
*1 amine or outer side, *2 acyl side, *3 side chain or, on linkers, in order; H or OH if unused. Where a SMILES comes first, the peptide text is derived from it. Bridges are numbered along the chain shown (N, C = ends). [ ]: non-standard residue; d: D form. The star is where a group is joined. DOTA = O=C(O)CN1CCN(CC(=O)O)CCN(CC(=O)*)CCN(CC(=O)O)CC1; d(γGlu) = O=C(O)[C@@H](CCC(=O)[*:2])N[*:1]; Pro(4S-NH2) = N[C@@H]1CN[C@H](C(=O)O)C1; Pro(4R-NH2) = N[C@H]1CN[C@H](C(=O)O)C1; cisHyp = O=C(O)[C@@H]1C[C@H](O)CN1; Hyp = O=C(O)[C@@H]1C[C@@H](O)CN1; dNle = CCCC[C@@H](N)C(=O)O; Pip = O=C(O)[C@@H]1CCCCN1; Ahx = NCCCCCC(=O)O

Molecular target: T1, human DLL3 (Homo sapiens, UniProt Q9NYJ7)
T1 construct: biotin (biotinylated)
T1 sequence (Q9NYJ7 27-618): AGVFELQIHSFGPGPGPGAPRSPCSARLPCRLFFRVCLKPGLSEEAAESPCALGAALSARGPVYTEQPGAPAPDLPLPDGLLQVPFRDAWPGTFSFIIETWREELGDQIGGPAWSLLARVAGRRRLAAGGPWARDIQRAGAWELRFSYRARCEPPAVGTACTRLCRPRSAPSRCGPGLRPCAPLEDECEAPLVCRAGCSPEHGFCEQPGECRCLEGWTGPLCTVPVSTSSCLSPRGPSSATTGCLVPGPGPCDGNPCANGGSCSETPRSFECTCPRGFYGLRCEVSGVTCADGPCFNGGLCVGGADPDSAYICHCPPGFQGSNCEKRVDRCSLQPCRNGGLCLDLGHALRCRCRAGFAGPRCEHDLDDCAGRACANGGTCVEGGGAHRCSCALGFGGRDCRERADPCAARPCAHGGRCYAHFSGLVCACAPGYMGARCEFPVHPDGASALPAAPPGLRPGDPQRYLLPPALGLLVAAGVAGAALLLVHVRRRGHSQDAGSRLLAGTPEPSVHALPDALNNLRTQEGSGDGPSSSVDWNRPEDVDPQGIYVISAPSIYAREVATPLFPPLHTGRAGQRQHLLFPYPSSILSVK
Assay: Affinity determination by Surface Plasmon Resonance (SPR), biotinylated human DLL3 immobilized on streptavidin sensor chip
Conditions: 25° C., Biacore, 1:1 binding model
Procedure: Affinity Determination by Surface Plasmon Resonance (SPR). SPR studies were performed on the compounds disclosed herein using the following protocol.
The binding affinity and binding kinetic parameters at 25° C. were determined using Biacore S200 or biacore 8K instrument. Biotinylated target ligand human DLL3 was immobilized on a streptavidin sensor chip. A reference surface was set up for nonspecific binding and refractive index changes. For analysis of the kinetics of interactions, varying concentrations of samples were injected at a flow rate of 100 μL/min using running buffer containing 20 mM phosphate buffer with 2.7 mM KCl, 137 mM NaCl, 0.05% Surfactant P20 and 2% DMSO. Sensorgram curves were fitted with 1:1 binding model, and affinity and kinetic parameters were obtained using Biacore Insight evaluation 4.0. software.

Kd | Structure (SMILES)
0.01 to 0.1 µM | CC[C@H](C)[C@H](NC(=O)[C@@H](NC(=O)[C@H](Cc1c[nH]c2ccccc12)NC(=O)CCCCCNC(=O)CN1CCN(CC(=O)O)CCN(CC(=O)O)CCN(CC(=O)O)CC1)[C@@H](C)O)C(=O)N[C@H]1CSSC[C@@H](C(=O)N[C@@H](Cc2c[nH]c3ccccc23)C(=O)N2C[C@H](O)C[C@H]2C(N)=O)NC(=O)[C@H](CC(=O)O)NC(=O)[C@H](Cc2cnc[nH]2)NC(=O)[C@H](Cc2c[nH]c3ccccc23)NC(=O)[C@H](CC(N)=O)NC(=O)[C@H](CC(N)=O)NC1=O [compound 68, DOTA-Ahx-W-T-I-C(3)-N-N-W-H-D-C(3)-W-(trans4OH-P)-CONH2] ({DOTA-Ahx}-WTICNNWHDCW[Hyp]-NH2; disulfide 4-10)
0.1 to 0.3 µM | CC[C@H](C)[C@H](NC(=O)[C@@H](NC(=O)[C@H](Cc1c[nH]c2ccccc12)NC(=O)CCCCCNC(=O)CN1CCN(CC(=O)O)CCN(CC(=O)O)CCN(CC(=O)O)CC1)[C@@H](C)O)C(=O)N[C@H]1CSSC[C@@H](C(=O)N[C@@H](Cc2c[nH]c3ccccc23)C(=O)N2C[C@@H](O)C[C@H]2C(N)=O)NC(=O)[C@H](CC(=O)O)NC(=O)[C@H](Cc2cnc[nH]2)NC(=O)[C@H](Cc2c[nH]c3ccccc23)NC(=O)[C@H](CC(N)=O)NC(=O)[C@H](CC(N)=O)NC1=O [compound 69, DOTA-Ahx-W-T-I-C(3)-N-N-W-H-D-C(3)-W-(cis4OH-P)-CONH2] ({DOTA-Ahx}-WTICNNWHDCW[cisHyp]-NH2; disulfide 4-10)
0.01 to 0.1 µM | CC[C@H](C)[C@H](NC(=O)[C@@H](NC(=O)[C@H](Cc1c[nH]c2ccccc12)NC(=O)CCCCCNC(=O)CN1CCN(CC(=O)O)CCN(CC(=O)O)CCN(CC(=O)O)CC1)[C@@H](C)O)C(=O)N[C@H]1CSSC[C@@H](C(=O)N[C@@H](Cc2c[nH]c3ccccc23)C(=O)N2CCCC[C@H]2C(N)=O)NC(=O)[C@H](CC(=O)O)NC(=O)[C@H](Cc2cnc[nH]2)NC(=O)[C@H](Cc2c[nH]c3ccccc23)NC(=O)[C@H](CC(N)=O)NC(=O)[C@H](CC(N)=O)NC1=O [compound 70, DOTA-Ahx-W-T-I-C(3)-N-N-W-H-D-C(3)-W-(Pip)-CONH2] ({DOTA-Ahx}-WTICNNWHDCW[Pip]-NH2; disulfide 4-10)
0.01 to 0.1 µM | CC[C@H](C)[C@H](NC(=O)[C@@H](NC(=O)[C@H](Cc1c[nH]c2ccccc12)NC(=O)[C@@H](CCCCNC(=O)CN1CCN(CC(=O)O)CCN(CC(=O)O)CCN(CC(=O)O)CC1)NC(C)=O)[C@@H](C)O)C(=O)N[C@H]1CSSC[C@@H](C(=O)N[C@@H](Cc2c[nH]c3ccccc23)C(=O)N2CCC[C@H]2C(N)=O)NC(=O)[C@H](CC(=O)O)NC(=O)[C@H](Cc2c[nH]cn2)NC(=O)[C@H](Cc2c[nH]c3ccccc23)NC(=O)[C@H](CC(N)=O)NC(=O)[C@H](CC(N)=O)NC1=O [compound 73, Ac-D-Lys(DOTA)-W-T-I-C(3)-N-N-W-H-D-C(3)-W-P-CONH2] (Ac-[dK](DOTA)WTICNNWHDCWP-NH2; disulfide 5-11)
0.001 to 0.01 µM | CCCC[C@@H](NC(=O)[C@@H]1CCCN1C(=O)[C@H](Cc1c[nH]c2ccccc12)NC(=O)[C@@H]1CSSC[C@H](NC(=O)[C@@H](NC(=O)[C@@H](NC(=O)[C@H](Cc2c[nH]c3ccccc23)NC(=O)CCCCCNC(=O)CN2CCN(CC(=O)O)CCN(CC(=O)O)CCN(CC(=O)O)CC2)[C@@H](C)O)[C@@H](C)CC)C(=O)N[C@@H](CC(N)=O)C(=O)N[C@@H](CC(N)=O)C(=O)N[C@@H](Cc2c[nH]c3ccccc23)C(=O)N[C@@H](Cc2cnc[nH]2)C(=O)N[C@@H](CC(=O)O)C(=O)N1)C(N)=O [compound 163, DOTA-Ahx-W-T-I-C(3)-N-N-W-H-D-C(3)-W-P-(D-Nle)-NH2] ({DOTA-Ahx}-WTICNNWHDCWP[dNle]-NH2; disulfide 4-10)
0.01 to 0.1 µM | CC[C@H](C)[C@H](NC(=O)[C@@H](NC(=O)[C@H](Cc1c[nH]c2ccccc12)NC(=O)CC[C@@H](NC(=O)CC[C@@H](NC(=O)CC[C@@H](NC(=O)CN1CCN(CC(=O)O)CCN(CC(=O)O)CCN(CC(=O)O)CC1)C(=O)O)C(=O)O)C(=O)O)[C@@H](C)O)C(=O)N[C@H]1CSSC[C@@H](C(=O)N[C@@H](Cc2c[nH]c3ccccc23)C(=O)N2CCC[C@H]2C(=O)O)NC(=O)[C@H](CC(=O)O)NC(=O)[C@H](Cc2c[nH]cn2)NC(=O)[C@H](Cc2c[nH]c3ccccc23)NC(=O)[C@H](CC(N)=O)NC(=O)[C@H](CC(N)=O)NC1=O [compound 221, DOTA-(D-gE)3-W-T-I-C(3)-N-N-W-H-D-C(3)-W-P-CONH2] ({DOTA-d(γGlu)-d(γGlu)-d(γGlu)}-WTICNNWHDCWP-OH; disulfide 4-10)
0.01 to 0.1 µM | CC[C@H](C)[C@H](NC(=O)[C@@H](NC(=O)[C@H](Cc1c[nH]c2ccccc12)NC(=O)CCCCCNC(=O)CN1CCN(CC(=O)O)CCN(CC(=O)O)CCN(CC(=O)O)CC1)[C@@H](C)O)C(=O)N[C@H]1CSSC[C@@H](C(=O)N[C@@H](Cc2c[nH]c3ccccc23)C(=O)N2C[C@H](N)C[C@H]2C(N)=O)NC(=O)[C@H](CC(=O)O)NC(=O)[C@H](Cc2cnc[nH]2)NC(=O)[C@H](Cc2c[nH]c3ccccc23)NC(=O)[C@H](CC(N)=O)NC(=O)[C@H](CC(N)=O)NC1=O [compound 224, DOTA-Ahx-W-T-I-C(3)-N-N-W-H-D-C(3)-W-(trans4NH2-P)-CONH2] ({DOTA-Ahx}-WTICNNWHDCW[Pro(4R-NH2)]-NH2; disulfide 4-10)
0.01 to 0.1 µM | CC[C@H](C)[C@H](NC(=O)[C@@H](NC(=O)[C@H](Cc1c[nH]c2ccccc12)NC(=O)CCCCCNC(=O)CN1CCN(CC(=O)O)CCN(CC(=O)O)CCN(CC(=O)O)CC1)[C@@H](C)O)C(=O)N[C@H]1CSSC[C@@H](C(=O)N[C@@H](Cc2c[nH]c3ccccc23)C(=O)N2C[C@@H](N)C[C@H]2C(N)=O)NC(=O)[C@H](CC(=O)O)NC(=O)[C@H](Cc2cnc[nH]2)NC(=O)[C@H](Cc2c[nH]c3ccccc23)NC(=O)[C@H](CC(N)=O)NC(=O)[C@H](CC(N)=O)NC1=O [compound 225, DOTA-Ahx-W-T-I-C(3)-N-N-W-H-D-C(3)-W-(cis4NH2-P)-CONH2] ({DOTA-Ahx}-WTICNNWHDCW[Pro(4S-NH2)]-NH2; disulfide 4-10)
